Data: patent publication US7655659B2, “Biomimetic of Evodia rutaecarpa fruit extract for amelioration of inflammation” (Applied Genetics Incorporated Dermatics, priority 2004, dated 2010)
Like-named read-outs stand apart in the source and are kept apart here. Blank lines part the entries; values can stand above or below the molecule they belong to.

How the values were obtained:
human skin = assay: Methyl nicotinate-induced erythema in human skin (Dermaspectrometer); assay type: in vivo; conditions: hydrogel lotion; Evodia mixture 1% (v/v) = 60.8 μg/ml actives, bisabolol 61 μg/ml
Description: Each application area was demarked by an adjacent label made with a permanent black ink marker. One hour prior to the methyl nicotinate challenge dose, the Evodia mixture lotion was applied liberally to treatment spots. A Carbopol® hydrogel lotion containing no Evodia mixture was used as a vehicle control. […] Immediately thereafter, 10 μL of a 0.14 mg/ml methyl nicotinate solution in water was applied to each treatment spot. Erythema was read 15, 30, 60 and 90 minutes later. […] Results for all the subjects were calculated as change of erythema readings from time zero.
The same protocol as described above was followed with five sites treated twice daily for two weeks. Three sites were treated with test articles of 0.1%, 0.3% and 1.0% (v/v) Evodia mixture in hydrogel lotion, one site was treated with a vehicle control lotion and one site was not treated with either lotion or methyl nicotinate.
A side by side comparison was made between the Evodia mixture and bisabolol, each formulated in a hydrogel lotion, with bisabolol equal to the total amount of actives in the Evodia mixture.

COX-2 = target: T1, COX-2 (Homo sapiens, UniProt P35354); assay: In vitro purified COX-2 enzyme assay (Cayman COX Inhibitor Screening Assay); assay type: biochemical; conditions: for IC50: in vitro
T1 construct: purchased Cayman, Ann Arbor, Mich
T1 sequence (P35354 18-604): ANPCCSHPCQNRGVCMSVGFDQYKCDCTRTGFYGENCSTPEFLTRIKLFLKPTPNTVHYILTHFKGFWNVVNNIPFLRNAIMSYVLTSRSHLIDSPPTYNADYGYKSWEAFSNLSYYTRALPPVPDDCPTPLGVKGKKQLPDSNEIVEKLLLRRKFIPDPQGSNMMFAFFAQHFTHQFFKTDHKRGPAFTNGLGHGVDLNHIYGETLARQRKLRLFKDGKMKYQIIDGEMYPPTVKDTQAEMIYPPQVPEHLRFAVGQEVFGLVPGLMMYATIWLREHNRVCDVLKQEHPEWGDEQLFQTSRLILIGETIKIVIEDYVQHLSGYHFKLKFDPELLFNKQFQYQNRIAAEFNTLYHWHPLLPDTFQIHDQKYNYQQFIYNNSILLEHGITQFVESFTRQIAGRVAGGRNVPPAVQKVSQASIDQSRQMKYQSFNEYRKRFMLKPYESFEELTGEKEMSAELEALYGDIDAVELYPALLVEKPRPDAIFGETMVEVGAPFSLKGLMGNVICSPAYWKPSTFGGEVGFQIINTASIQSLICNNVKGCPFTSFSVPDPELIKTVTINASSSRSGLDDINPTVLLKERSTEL
Description: It is well known that the major source of inducible prostaglandin release from cells is related to induction of cyclo-oxygenase 2 (COX-2). […] The assay was a commercially available COX Inhibitor Screening Assay (Cayman, Ann Arbor, Mich.) run according to the manufacturer's instructions.
Fractions were analyzed for COX-2 inhibitory activity using the in vitro assay employed in the previous example.

COX-1 = target: T2, COX-1 (Ovis aries, UniProt P05979); assay: In vitro COX-1 enzyme assay
T2 sequence (P05979 25-600): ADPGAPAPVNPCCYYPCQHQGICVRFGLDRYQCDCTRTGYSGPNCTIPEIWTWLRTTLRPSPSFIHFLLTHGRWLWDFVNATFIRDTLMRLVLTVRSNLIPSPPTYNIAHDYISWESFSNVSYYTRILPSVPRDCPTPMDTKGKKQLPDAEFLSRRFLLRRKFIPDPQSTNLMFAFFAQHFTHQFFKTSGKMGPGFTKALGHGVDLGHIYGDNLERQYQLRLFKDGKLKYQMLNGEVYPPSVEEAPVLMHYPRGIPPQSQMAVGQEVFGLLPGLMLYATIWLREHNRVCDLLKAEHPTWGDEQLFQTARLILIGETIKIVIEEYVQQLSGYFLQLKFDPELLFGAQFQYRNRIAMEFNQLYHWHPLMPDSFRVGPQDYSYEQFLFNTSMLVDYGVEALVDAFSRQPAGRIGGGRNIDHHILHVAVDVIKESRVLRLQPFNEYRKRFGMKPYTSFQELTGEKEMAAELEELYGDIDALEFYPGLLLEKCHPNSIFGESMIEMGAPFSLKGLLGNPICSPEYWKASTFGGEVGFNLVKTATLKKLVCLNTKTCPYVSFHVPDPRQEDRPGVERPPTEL

HaCaT cells = assay: Inhibition of UVB-induced PGE2 secretion from HaCaT keratinocytes (PGE2 ELISA); assay type: cell-based; conditions: for μg/ml to inhibit 80% of PGE2 secretion: UVB-irradiated HaCaT cells
Description: The HaCaT keratinocyte cell line was cultured in GibcoBRL (Grand Island, N.Y.) D-MEM low glucose medium containing 10% heat inactivated fetal bovine serum, 1% penicillin/streptomycin, 1% L-glutamine, and 1% nonessential amino acids. […] The media was harvested 24 hours after UVB irradiation and analyzed for prostaglandin E2 (PGE2) content using a PGE2 ELISA kit (R & D Systems Catalogue Number DE0100).
The observation that the selectivity of the Evodia rutaecarpa extract (216, see Example 1) was greater than the selectivity of purified BHT (87, Table 3) led us to conclude that there is synergy among the components in inhibiting COX-2. Initial data is consistent with this synergy existing also in the biomimetic of the present invention. The ability of BHT to inhibit PG secretion from UVB-irradiated HaCaT cells was examined by treating cells with BHT immediately after UVB irradiation. The media was harvested 24 hours later and analyzed for PGE2 content using a PGE2 ELISA kit (R & D Systems, Minneapolis, Minn., USA). BHT inhibited UVB-induced PG secretion at 2-20 μg/ml, which is in the range of the IC50 for inhibition of COX-2 in vitro.
The preferred Evodia mixture of Table 4 was examined for its ability to inhibit UVB-induced PGE2 secretion from HaCaT cells. […] This illustrates the discovery that the Evodia rutaecarpa extract contains a compound which blocks this activity and that when the inhibitor is removed the components act synergistically to inhibit UVB-induced PGE2. The preferred Evodia mixture was also effective at inhibiting the COX-2 enzyme in vitro. […] Thus, while the Evodia mixture is useful for inhibiting UVB-induced PGE2 secretion from skin cells when used at 0.01% (v/v) (FIG. 4), for inflammatory conditions mediated exclusively by COX-2, the preferred formulation would contain at least 1% (v/v) Evodia mixture.

[1] = tested on: normal human epidermal keratinocytes (NHEK); assay: Prostaglandin secretion from cultured skin cells treated with methyl nicotinate (PGD2 and PGE2 ELISA); assay type: cell-based; conditions: NHEK and also HMVEC, 125 to 1000 μM
Description: (§1) Normal human epidermal keratinocytes (NHEK) and human microvascular endothelial cells (HMVEC) were obtained from a commercial supplier (Cascade Biologics, Portland, Oreg., USA) and cultured according to the manufacturer's recommendations. Methyl nicotinate was made up as a IM stock solution in H2O. The stock solution was diluted to 100 mM in H2O. The 100 mM methyl nicotinate was further diluted to 125 to 1000 μM methyl nicotinate in the cell culture media and the NHEK and HMVEC cells were treated when they had grown to approximately 70% confluency with fresh media containing the methyl nicotinate. After 24 hours of incubation in the methyl nicotinate media, the cultured media was collected. Nitric oxide was measured using the Greiss reagents as described in the Calbiochem colorimetric nitric oxide assay kit (Calbiochem, San Diego, Calif.). PGs in the cell culture media were analyzed using commercially available PGD2 and PGE2 ELISA kits (R & D Systems, Minneapolis, Minn., USA). […] This is in accordance with studies on human skin showing that erythema induced by topical application of methyl nicotinate is mediated by PGD2 (Morrow et al., 1992). […] Since NO is a vasodilatory agent that induces skin erythema, methyl nicotinate can thus induce skin erythema by induction of NO as well as via induction of PGD2 and PGE2. […]

[2] = tested on: human microvascular endothelial cells (HMVEC); assay: Nitric oxide release from endothelial cells treated with methyl nicotinate (Greiss reagents); assay type: cell-based; conditions: 24 hours; at much lower concentrations than for PGD2 and PGE2 (FIG. 5B)
Description: as §1

[3] = read-out: IC50 COX-2 (converted)

Molecule: CC(C)=CCC[C@](C)(O)C1CC=C(C)CC1 (stereo partly drawn) [bisabolol]
effect on methyl nicotinate mediated erythema, side by side comparison (human skin): ineffective

IC50 (COX-2; read-out: μg/ml to inhibit 50% of COX-2 activity): > 24.8 µM
Molecule: C[n+]1c2n(c(=O)c3ccccc31)CCc1c-2[nH]c2ccccc12 [dehydroevodiamine]

IC50 (COX-1): 5900 µM | IC50 (COX-2; [3]): 68.1 µM | Selectivity COX-1/COX-2 (COX-2; ratio of IC50s): 87
Molecule: Cc1cc(C(C)(C)C)c(O)c(C(C)(C)C)c1 [Butylated Hydroxytoluene (BHT), butylated hydroxytoluene]
concentration inhibiting UVB-induced PG secretion (HaCaT cells; cells treated immediately after UVB, media harvested 24 hours later): 2 to 20 µg/mL

Molecule: O=c1c2ccccc2nc2n1CCc1c-2[nH]c2ccccc12 [rutaecarpine]
μg/ml to inhibit 80% of PGE2 secretion (HaCaT cells): 0.3 µg/mL

Molecule: C[C@H]1[C@H](C)CC[C@]2(C(=O)O)CC[C@]3(C)C(=CC[C@@H]4[C@@]5(C)CC[C@H](O)C(C)(C)[C@@H]5CC[C@]43C)[C@H]12 [Ursolic Acid (URA), ursolic acid]
IC50 (COX-2; [3]): 59.1 µM

Molecule: COC(=O)c1cccnc1 [methyl nicotinate]
PGD2 secretion ([1]; 24 hours (FIG. 5A)): induced | PGE2 secretion ([1]; 24 hours (data not shown)): induced | NO secretion from HMVEC [2]: induced

Molecule: evodiamine
μg/ml to inhibit 80% of PGE2 secretion (HaCaT cells): 0.3 µg/mL
